The text below walks through data of ChEMBL document CHEMBL1154920, “Rare casbane diterpenoids from the Hainan soft coral Sinularia depressa” (J Nat Prod, 2010).

The test system of one assay is HepG2. As to the kind of experiment: Cytotoxicity against human HepG2 cells after 72 hrs by MTT assay. Format: functional, cell-based. As to conditions: HepG2, 72 h. Background: Formazan colour is commonly taken as a measure of viable cells.
In another assay the test system is Escherichia coli. Description: Antibacterial activity against Escherichia coli by broth macrodilution method. Format: functional, organism-based.
The test system of another assay is SW1990. As to the kind of experiment: Cytotoxicity against human SW1990 cells after 72 hrs by MTT assay. Format: functional, cell-based. As to conditions: SW1990, 72 h.
A further assay deals with Staphylococcus aureus. Description: Antibacterial activity against Staphylococcus aureus by broth macrodilution method. The class given is functional, organism-based.

As a reminder, the IC50 is the point on the concentration scale where inhibition reaches its midpoint. Low values mean inhibition by little substance, high ones a need for much substance.

For `C/C1=C\[C@@H](O)C/C(C)=C/CC(=O)/C(C)=C/[C@@H]2[C@H](CC1)C2(C)C`, the IC50 is 61 µM in the assay on HepG2, 17 µM in the assay on Escherichia coli, 37 µM in the assay on SW1990 and 17 µM in the assay on Staphylococcus aureus.
